Source: PubChem BioAssay (NCI)
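Tested at 5 concentrations; 48 h exposure; 96-well plates; endpoints linearly interpolated, else capped at highest concentration. GI50 is the concentration that inhibits growth by half. Definition used: TGI = concentration required for complete inhibition of growth.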

Legend:
Assay in all cases: NCI tumour cell line growth inhibition, 48 h
[1] = tested on: MOLT-4 leukemia
[2] = tested on: UACC-257 melanoma
[3] = tested on: UACC-62 melanoma
[4] = tested on: SR leukemia
[5] = tested on: U251 CNS
[6] = tested on: OVCAR-8 ovarian
[7] = tested on: SN12C renal
[8] = tested on: NCI-H23 lung
[9] = tested on: PC-3 prostate
[10] = tested on: SF-268 CNS
[11] = tested on: COLO 205 colon
[12] = tested on: MDA-MB-231 breast
[13] = tested on: DU-145 prostate
[14] = tested on: SK-MEL-5 melanoma
[15] = tested on: TK-10 renal
[16] = tested on: HT29 colon
[17] = tested on: K-562 leukemia
[18] = tested on: HCC-2998 colon
[19] = tested on: OVCAR-3 ovarian
[20] = tested on: UO-31 renal
[21] = tested on: EKVX NSCLC
[22] = tested on: SK-OV-3 ovarian
[23] = tested on: SK-MEL-2 melanoma
[24] = tested on: SK-MEL-28 melanoma
[25] = tested on: 786-0 renal
[26] = tested on: HOP-92 NSCLC
[27] = tested on: T-47D breast
[28] = tested on: CCRF-CEM leukemia
[29] = tested on: SNB-19 CNS
[30] = tested on: M14 melanoma
[31] = tested on: KM12 colon
[32] = tested on: OVCAR-4 ovarian
[33] = tested on: RXF 393 renal
[34] = tested on: MDA-MB-435
[35] = tested on: HCT-15 colon
[36] = tested on: NCI-H460 lung
[37] = tested on: OVCAR-5 ovarian
[38] = tested on: A549 NSCLC
[39] = tested on: NCI-H226 lung
[40] = tested on: NCI-H522 lung
[41] = tested on: CAKI-1 renal
[42] = tested on: LOX IMVI melanoma
[43] = tested on: SF-295 CNS
[44] = tested on: NCI/ADR-RES ovarian
[45] = tested on: HOP-62 NSCLC
[46] = tested on: BT-549 breast
[47] = tested on: SW-620 colon
[48] = tested on: HCT-116 colon
[49] = tested on: HL-60(TB) leukemia
[50] = tested on: ACHN renal
[51] = tested on: SNB-75 CNS
[52] = tested on: HS 578T breast
[53] = tested on: IGROV1 ovarian
[54] = tested on: A498 renal
[55] = tested on: SF-539 CNS
[56] = tested on: MALME-3M melanoma
[57] = tested on: RPMI-8226 leukemia

## CCC(C)CN=C(N)c1ccc(N2CCN(c3ccc(C(N)=NCC(C)CC)cc3)CC2)cc1 (centres undefined)
[1]
  GI50: 14.2 µM
  TGI: 38.4 µM
[2]
  GI50: 20.3 µM
  TGI: > 100 µM
[3]
  GI50: 11.4 µM
  TGI: 28.1 µM
[4]
  GI50: 0.443 µM
  TGI: 3.01 µM
[5]
  GI50: 3.69 µM
  TGI: 19.4 µM
[6]
  GI50: 5.58 µM
  TGI: > 100 µM
[7]
  GI50: 2.3 µM
  TGI: 8.89 µM
[8]
  GI50: 5.2 µM
  TGI: 36.3 µM
[9]
  GI50: 7.56 µM
  TGI: 69.3 µM
[10]
  GI50: 3.93 µM
  TGI: 17.4 µM
[11]
  GI50: 23.4 µM
  TGI: > 100 µM
[12]
  GI50: 6.19 µM
  TGI: 37.3 µM
[13]
  GI50: 5.72 µM
  TGI: > 100 µM
[14]
  GI50: 1.71 µM
  TGI: 12.3 µM
[15]
  GI50: 15.1 µM
  TGI: > 100 µM
[16]
  GI50: 11 µM
  TGI: > 100 µM
[17]
  GI50: 2.84 µM
  TGI: 14 µM
[18]
  GI50: 11.5 µM
  TGI: > 100 µM
[19]
  GI50: 3.45 µM
  TGI: 35.4 µM
[20]
  GI50: 79.5 µM
  TGI: > 100 µM
[21]
  GI50: 0.955 µM
  TGI: 23.3 µM
[22]
  GI50: 23.1 µM
  TGI: 79.8 µM
[23]
  GI50: 8.67 µM
  TGI: 45.3 µM
[24]
  GI50: 16.9 µM
  TGI: 41.8 µM
[25]
  GI50: 7.33 µM
  TGI: 87.3 µM
[26]
  GI50: 0.29 µM
  TGI: 8.03 µM
[27]
  GI50: 18.5 µM
  TGI: > 100 µM
[28]
  GI50: 6.09 µM
  TGI: 40.7 µM
[29]
  GI50: 12.9 µM
  TGI: 69.2 µM
[30]
  GI50: 8.64 µM
  TGI: 43.5 µM
[31]
  GI50: 7.25 µM
  TGI: 52 µM
[32]
  GI50: 19.3 µM
  TGI: > 100 µM
[33]
  GI50: 15.9 µM
  TGI: 96.7 µM
[34]
  GI50: 5.48 µM
  TGI: 28.5 µM
[35]
  GI50: 26.5 µM
  TGI: > 100 µM
[36]
  GI50: 3.34 µM
  TGI: 19.1 µM
[37]
  GI50: 33 µM
  TGI: > 100 µM
[38]
  GI50: 10.5 µM
  TGI: > 100 µM
[39]
  GI50: 6.54 µM
  TGI: 31.3 µM
[40]
  GI50: 6.49 µM
  TGI: 27.2 µM
[41]
  GI50: 30 µM
  TGI: 92.3 µM
[42]
  GI50: 12.1 µM
  TGI: 41.8 µM
[43]
  GI50: 2.9 µM
  TGI: 17.4 µM
[44]
  GI50: 85.6 µM
  TGI: > 100 µM
[45]
  GI50: 4.51 µM
  TGI: 24.2 µM
[46]
  GI50: 2.91 µM
  TGI: 12.5 µM
[47]
  GI50: 17 µM
  TGI: > 100 µM
[48]
  GI50: 8.51 µM
  TGI: 60 µM
[49]
  GI50: 10.9 µM
  TGI: 39.9 µM
[50]
  GI50: 48 µM
  TGI: > 100 µM

## CCCCCN1C(=O)/C(=c2\sc3n(c2=O)C2C(NN=3)N(CC)C(=O)N2CC)c2ccccc21 (centres undefined)
[3]
  GI50: 1.06 µM
  TGI: 3.29 µM
[51]
  GI50: 0.26 µM
  TGI: 1.37 µM
[52]
  GI50: 1.03 µM
  TGI: 4.48 µM
[5]
  GI50: 1.31 µM
  TGI: 2.72 µM
[8]
  GI50: 1.83 µM
  TGI: 5.23 µM
[10]
  GI50: 1.49 µM
  TGI: 3.77 µM
[11]
  GI50: 1.55 µM
  TGI: 3.56 µM
[12]
  GI50: 1.87 µM
  TGI: 4.34 µM
[13]
  GI50: 2.01 µM
  TGI: 4.52 µM
[15]
  GI50: 1.8 µM
  TGI: 3.44 µM
[16]
  GI50: 1.65 µM
  TGI: 3.02 µM
[19]
  GI50: 1.41 µM
  TGI: 3.01 µM
[53]
  GI50: 1.65 µM
  TGI: 4.15 µM
[22]
  GI50: 1.44 µM
  TGI: 2.92 µM
[23]
  GI50: 1.55 µM
  TGI: 3.3 µM
[25]
  GI50: 1.59 µM
  TGI: 3.27 µM
[26]
  GI50: 1.22 µM
  TGI: 3.72 µM
[29]
  GI50: 1.88 µM
  TGI: 5.25 µM
[30]
  GI50: 1.28 µM
  TGI: 3.98 µM
[33]
  GI50: 0.798 µM
  TGI: 2.83 µM
[34]
  GI50: 0.32 µM
  TGI: 1.08 µM
[40]
  GI50: 0.754 µM
  TGI: 2.29 µM
[54]
  GI50: 0.274 µM
  TGI: 1.67 µM
[43]
  GI50: 0.833 µM
  TGI: 3.21 µM
[45]
  GI50: 1.62 µM
  TGI: 3.83 µM
[55]
  GI50: 1.3 µM
  TGI: 2.61 µM
[46]
  GI50: 2.41 µM
  TGI: 10.7 µM
[49]
  GI50: 1.91 µM
  TGI: 4.07 µM
[50]
  GI50: 1.17 µM
  TGI: 2.58 µM

## COc1ccc2nc3c(n2c1)C(=O)C(=O)c1ccccc1-3
[1]
  GI50: 2.43 µM
  TGI: 5.81 µM
[2]
  GI50: 1.73 µM
  TGI: 3.13 µM
[3]
  GI50: 1.47 µM
  TGI: 2.9 µM
[51]
  GI50: 1.4 µM
  TGI: 2.77 µM
[4]
  GI50: 2.53 µM
  TGI: 6.59 µM
[5]
  GI50: 1.51 µM
  TGI: 2.85 µM
[6]
  GI50: 2.41 µM
  TGI: 9.36 µM
[8]
  GI50: 1.16 µM
  TGI: 4.21 µM
[9]
  GI50: 1.52 µM
  TGI: 9.02 µM
[10]
  GI50: 2.05 µM
  TGI: 5.15 µM
[11]
  GI50: 2.73 µM
  TGI: 8.14 µM
[12]
  GI50: 2.53 µM
  TGI: 10.6 µM
[13]
  GI50: 1.66 µM
  TGI: 3.18 µM
[14]
  GI50: 1.67 µM
  TGI: 3.06 µM
[15]
  GI50: 2.62 µM
  TGI: 4.78 µM
[16]
  GI50: 2.59 µM
  TGI: 6.19 µM
[17]
  GI50: 0.939 µM
  TGI: 6.09 µM
[18]
  GI50: 1.83 µM
  TGI: 3.63 µM
[20]
  GI50: 1.31 µM
  TGI: 2.62 µM
[53]
  GI50: 1.75 µM
  TGI: 5.34 µM
[21]
  GI50: 1.8 µM
  TGI: 4.83 µM
[22]
  GI50: 1.75 µM
  TGI: 3.57 µM
[23]
  GI50: 1.83 µM
  TGI: 3.66 µM
[24]
  GI50: 1.89 µM
  TGI: 3.52 µM
[25]
  GI50: 2.07 µM
  TGI: 4.4 µM
[56]
  GI50: 1.55 µM
  TGI: 2.93 µM
[26]
  GI50: 3.09 µM
  TGI: 9.53 µM
[27]
  GI50: 2.02 µM
  TGI: 5.5 µM
[28]
  GI50: 2.6 µM
  TGI: 6.62 µM
[29]
  GI50: 1.98 µM
  TGI: 4.4 µM
[30]
  GI50: 1.75 µM
  TGI: 3.32 µM
[31]
  GI50: 2.05 µM
  TGI: 5.04 µM
[33]
  GI50: 1.84 µM
  TGI: 3.55 µM
[34]
  GI50: 0.192 µM
  TGI: 0.353 µM
[36]
  GI50: 1.63 µM
  TGI: 3.65 µM
[37]
  GI50: 1.8 µM
  TGI: 3.32 µM
[39]
  GI50: 2.03 µM
  TGI: 4.89 µM
[40]
  GI50: 1.54 µM
  TGI: 3.39 µM
[42]
  GI50: 0.466 µM
  TGI: 1.89 µM
[54]
  GI50: 2.44 µM
  TGI: 6.11 µM
[43]
  GI50: 1.62 µM
  TGI: 3.03 µM
[44]
  GI50: 2.06 µM
  TGI: 6.58 µM
[55]
  GI50: 1.82 µM
  TGI: 3.24 µM
[46]
  GI50: 1.39 µM
  TGI: 2.69 µM
[48]
  GI50: 1.58 µM
  TGI: 3.7 µM
[57]
  GI50: 1.52 µM
  TGI: 5.36 µM
[49]
  GI50: 2.23 µM
  TGI: 5.57 µM
[50]
  GI50: 1.46 µM
  TGI: 2.77 µM
